{
  "source": "patent US5663159A",
  "about": "“Prodrugs of phosphonates” (Institute of Organic Chemistry and Biochemistry of the …, priority 1994, dated 1997)",
  "key": {"[1]": {"system": "suid herpesvirus type 1 (SHV-1, or pseudorabies virus or Aujeszky's disease virus)", "settings": "literature; cited from earlier work"}, "[2]": {"system": "adenovirus", "settings": "literature; cited from earlier work"}, "[3]": {"system": "varicella zoster virus (VZV)", "settings": "literature; cited from earlier work"}, "[4]": {"system": "murine sarcoma virus (MSV)", "settings": "literature; cited from earlier work"}, "[5]": {"system": "equid herpesviruse type 1 (equine abortion virus, EHV-1)", "settings": "literature; cited from earlier work"}, "[6]": {"system": "herpes simplex virus, type 2 (HSV-2)", "settings": "literature; cited from earlier work"}, "[7]": {"system": "bovid herpesvirus type 1 (infectious bovine rhinotracheitis virus, BHV-1)", "settings": "literature; cited from earlier work"}, "[8]": {"system": "human cytomegalovirus (HCMV)", "settings": "literature; cited from earlier work"}, "[9]": {"system": "P388 leukemia", "settings": "murine tumor model; cited from earlier work"}, "[10]": {"system": "herpes simplex virus type 1", "settings": "rabbits in vivo; including herpetic keratitis caused by a TK^- mutant; cited from earlier work"}, "[11]": {"system": "African swine fever (ASF) virus", "settings": "literature; cited from earlier work"}, "[12]": {"system": "phocid herpesvirus type 1 (seal herpesvirus, SeHV)", "settings": "literature; cited from earlier work"}, "[13]": {"system": "thymidine kinase-deficient (TK^-) mutants of herpes simplex", "settings": "literature; cited from earlier work"}, "[14]": {"system": "vaccinia virus", "settings": "literature; cited from earlier work"}, "[15]": {"system": "herpes simplex virus, type 1 (HSV-1)", "settings": "literature; cited from earlier work"}, "[16]": {"system": "herpes simplex virus type 1", "settings": "mice in vivo; including herpetic keratitis caused by a TK^- mutant; cited from earlier work"}, "[17]": {"system": "simian herpesvirus platyrrhinae (HVP)", "settings": "literature; cited from earlier work"}, "[18]": {"test": "in vitro"}, "[19]": {"system": "murine cytomegalovirus (MCMV)", "settings": "cited from earlier work"}, "[20]": {"system": "HSV-2 (G STRAIN)", "test": "In vitro activity of PMEA prodrugs against HSV-2 (G strain), plaque reduction", "assay_type": "cell-based", "settings": "for IC50: Human alphaherpesvirus 2, dose which gives a 50% reduction of plaque formation, read-out: ID50 (the source's name); for ID50: dose which gives a 50% reduction of plaque formation", "from_the_text": "PRODRUGS AGAINST HSV-2 (G STRAIN)\n^a DOSE WHICH GIVES A 50% REDUCTION OF PLACQUE FORMATION"}, "[21]": {"system": "Rauscher murine leukemia virus (R-MuLV)", "settings": "mice; vs 3'-azido-3'-deoxythymidine (AZT); cited from earlier work"}, "[22]": {"system": "Rauscher murine leukemia virus (R-MuLV)", "settings": "cited from earlier work"}, "[23]": {"system": "human immunodeficiency virus (HIV)", "settings": "literature, cited from earlier work"}, "[24]": {"test": "Toxicity in the in vitro HSV-2 test"}, "[25]": {"system": "B16 melanoma", "settings": "murine tumor model; cited from earlier work"}, "[26]": {"system": "HSV 1", "settings": "in vivo, mice; more potent than acyclovir; cited from earlier work"}, "[27]": {"system": "herpes viruses", "settings": "cited from earlier work"}},
  "note": "“Also recorded” adds a separate entry of the source. Structures can show the parent of a compound that is named as a salt. Where two headings read alike, the source gives them in different places.",
  "data": [
    {"smiles": "Nc1ncnc2c1ncn2C[C@@H](CO)OCP(=O)(O)O", "note": "[(S)-HPMPA, (S)-9-((3-hydroxy-2-phosphonylmethoxy)propyl)adenine]", "values": [
      {"measurement": "activity against SHV-1", "setting": "[1]", "result": "potent and selective activity"},
      {"measurement": "activity against adenovirus", "setting": "[2]", "result": "potent and selective activity; also recorded: active"},
      {"measurement": "activity against VZV", "setting": "[3]", "result": "potent and selective activity; also recorded: active"},
      {"measurement": "activity against MSV", "setting": "[4]", "result": "potent and selective activity"},
      {"measurement": "activity against EHV-1", "setting": "[5]", "result": "potent and selective activity"},
      {"measurement": "activity against HSV-2", "setting": "[6]", "result": "potent and selective activity; also recorded: active"},
      {"measurement": "activity against BHV-1", "setting": "[7]", "result": "potent and selective activity"},
      {"measurement": "activity against HCMV", "setting": "[8]", "result": "potent and selective activity"},
      {"measurement": "activity against intraperitoneal P388 leukemia", "setting": "[9]", "result": "active"},
      {"measurement": "efficacy against local and systemic HSV-1 infections", "setting": "[10]", "result": "effective"},
      {"measurement": "activity against ASF virus", "setting": "[11]", "result": "potent and selective activity"},
      {"measurement": "activity against SeHV", "setting": "[12]", "result": "potent and selective activity"},
      {"measurement": "activity against TK^- mutants of herpes simplex", "setting": "[13]", "result": "potent and selective activity"},
      {"measurement": "activity against vaccinia virus", "setting": "[14]", "result": "potent and selective activity; also recorded: active"},
      {"measurement": "activity against HSV-1", "setting": "[15]", "result": "potent and selective activity; also recorded: active"},
      {"measurement": "efficacy against local and systemic HSV-1 infections", "setting": "[16]", "result": "effective"},
      {"measurement": "activity against HVP", "setting": "[17]", "result": "potent and selective activity"}
    ]},
    {"smiles": "Nc1ccn(C[C@@H](CO)OCP(=O)(O)O)c(=O)n1", "note": "[(S)-HPMPC]", "values": [
      {"measurement": "activity against HSV-2", "setting": "[6]", "result": "active"},
      {"measurement": "activity against HCMV", "setting": "[8]", "result": "active"},
      {"measurement": "activity against HSV-1", "setting": "[15]", "result": "active"}
    ]},
    {"smiles": "Nc1nc(N)c2ncn(C[C@@H](CO)OCP(=O)(O)O)c2n1", "note": "[(S)-HPMPDAP]", "values": [
      {"measurement": "activity against HSV-2", "setting": "[6]", "result": "active"},
      {"measurement": "activity against HSV-1", "setting": "[15]", "result": "active"}
    ]},
    {"smiles": "Nc1nc2c(ncn2C[C@@H](CO)OCP(=O)(O)O)c(=O)[nH]1", "note": "[(S)-HPMPG]", "values": [
      {"measurement": "activity against HSV-2", "setting": "[6]", "result": "active"},
      {"measurement": "activity against HSV-1", "setting": "[15]", "result": "active"}
    ]},
    {"smiles": "Nc1ncnc2c1ncn2C[C@H]1COP(=O)(O)CO1", "note": "[(S)-cyclic HPMPA]", "values": [
      {"measurement": "activity against adenovirus", "setting": "[2]", "result": "active"},
      {"measurement": "activity against VZV", "setting": "[3]", "result": "active"},
      {"measurement": "activity against HSV-2", "setting": "[6]", "result": "active"},
      {"measurement": "activity against vaccinia virus", "setting": "[14]", "result": "active"},
      {"measurement": "activity against HSV-1", "setting": "[15]", "result": "active"}
    ]},
    {"smiles": "Nc1ncnc2c1ncn2CCOCP(=O)(O)O", "note": "[Example 1, 9-(2-Phosphonylmethoxy)ethyladenine]", "values": [
      {"measurement": "CC50", "setting": "[18]", "result": "> 166", "unit": "µg/mL"},
      {"measurement": "antiviral effect in vivo against MCMV", "setting": "[19]", "result": "significant antiviral effect"},
      {"measurement": "IC50", "setting": "[20]", "result": 39, "unit": "µg/mL"},
      {"measurement": "potency in vivo relative to AZT in the treatment of R-MuLV", "setting": "[21]", "result": "more potent in vivo"},
      {"measurement": "activity against HSV-2", "setting": "[6]", "result": "active"},
      {"measurement": "activity against HCMV", "setting": "[8]", "result": "in vitro activity"},
      {"measurement": "activity against intraperitoneal P388 leukemia", "setting": "[9]", "result": "active"},
      {"measurement": "in vitro activity against R-MuLV", "setting": "[22]", "result": "good in vitro activity"},
      {"measurement": "activity against HIV", "setting": "[23]; listed as PMEA", "result": "active; also recorded: good in vitro activity"},
      {"measurement": "activity against HSV-1", "setting": "[15]", "result": "active"}
    ]},
    {"smiles": "CC(C)(C)C(=O)OCOP(=O)(COCCn1cnc2c(N)ncnc21)OCOC(=O)C(C)(C)C", "note": "[Example 9, PMEA, di(pivaloyloxymethyl ester)]", "values": [
      {"measurement": "CC50", "setting": "[18]", "result": 100, "unit": "µg/mL"},
      {"measurement": "IC50", "setting": "[20]", "result": 0.28, "unit": "µg/mL"}
    ]},
    {"smiles": "CCC(=O)OCOP(=O)(COCCn1cnc2c(N)ncnc21)OCOC(=O)CC", "note": "[Example 12, PMEA, di-(propionyloxymethyl ester)]", "values": [
      {"measurement": "CC50", "setting": "[18]", "result": 100, "unit": "µg/mL"},
      {"measurement": "IC50", "setting": "[20]", "result": 0.17, "unit": "µg/mL"}
    ]},
    {"smiles": "CC(C)C(=O)OCOP(=O)(COCCn1cnc2c(N)ncnc21)OCOC(=O)C(C)C", "note": "[Example 13, PMEA, di-(isobutyrloxymethyl ester)]", "values": [
      {"measurement": "CC50", "setting": "[18]", "result": 100, "unit": "µg/mL"},
      {"measurement": "IC50", "setting": "[20]", "result": "< 0.1", "unit": "µg/mL"}
    ]},
    {"smiles": "CC(C)(C)C(=O)OCOP(=O)(O)COCCn1cnc2c(N)ncnc21", "note": "[Example 15, PMEA, mono pivaloyloxymethyl ester]", "values": [
      {"measurement": "IC50", "setting": "[20]", "result": 8.1, "unit": "µg/mL"},
      {"measurement": "CC50", "setting": "[24]", "result": 100, "unit": "µg/mL"}
    ]},
    {"smiles": "CC(C)OP(=O)(COCCn1cnc2c(N)ncnc21)Oc1ccccc1", "note": "(centres unmarked) [Example 16, PMEA, (mono isopropyl, monophenyl) ester]", "values": [
      {"measurement": "ID50", "setting": "[20]", "result": "> 100", "unit": "µg/mL"},
      {"measurement": "CC50", "setting": "[24]", "result": 100, "unit": "µg/mL"}
    ]},
    {"smiles": "Nc1ncnc2c1ncn2CCOCP(=O)(O)OCCCO", "note": "[Example 22, PMEA, 3-hydroxypropanyl ester, (sodium salt)]", "values": [
      {"measurement": "CC50", "setting": "[18]", "result": "> 166", "unit": "µg/mL"},
      {"measurement": "IC50", "setting": "[20]", "result": 110, "unit": "µg/mL"}
    ]},
    {"smiles": "Nc1ncnc2c1ncn2CCOCP(=O)(O)Oc1ccccc1", "note": "[Example 34, PMEA, monophenyl ester (sodium salt)]", "values": [
      {"measurement": "ID50", "setting": "[20]", "result": 42, "unit": "µg/mL"},
      {"measurement": "CC50", "setting": "[24]", "result": "> 166", "unit": "µg/mL"}
    ]},
    {"smiles": "Nc1ncnc2c1ncn2CCOCP(=O)(Oc1ccccc1)Oc1ccccc1", "note": "[Example 35, PMEA, diphenyl ester]", "values": [
      {"measurement": "ID50", "setting": "[20]", "result": 34, "unit": "µg/mL"},
      {"measurement": "CC50", "setting": "[24]", "result": "> 166", "unit": "µg/mL"}
    ]},
    {"smiles": "Nc1nc(N)c2ncn(CCOCP(=O)(O)O)c2n1", "note": "[PMEDAP]", "values": [
      {"measurement": "activity against HSV-2", "setting": "[6]", "result": "active"},
      {"measurement": "activity against HIV", "setting": "[23]", "result": "active"},
      {"measurement": "activity against HSV-1", "setting": "[15]", "result": "active"}
    ]},
    {"smiles": "Nc1nc2c(ncn2CCOCP(=O)(O)O)c(=O)[nH]1", "note": "[PMEG]", "values": [
      {"measurement": "activity against B16 melanoma", "setting": "[25]", "result": "active"},
      {"measurement": "activity against HSV-2", "setting": "[6]", "result": "active"},
      {"measurement": "activity against intraperitoneal P388 leukemia", "setting": "[9]", "result": "active"},
      {"measurement": "potency relative to acyclovir against HSV 1 infection", "setting": "[26]", "result": "> 50", "unit": "fold"},
      {"measurement": "in vitro potency against herpes viruses", "setting": "[27]", "result": "exceptionally potent"},
      {"measurement": "activity against HSV-1", "setting": "[15]", "result": "active"}
    ]},
    {"smiles": "Nc1ncc2ncn(CCOCP(=O)(O)O)c2n1", "note": "[PMEMAP]", "values": [
      {"measurement": "activity against HIV", "setting": "[23]", "result": "active"}
    ]}
  ]
}
